The conditions of data set [1]: difference between doses producing an anti-arrhythmic effect and a negative inotropic effect; cited from earlier work.
Data set [2] concerns left auricle of the heart of guinea pigs. The data set can be described thus: Functional refractory period and contractility of the isolated left auricle (paired electrical stimulation, adapted from Govier). Type of data set: cell-based, guinea pig. Also noted: Anti-arrhythmic effect (Refractory period extension) ED25 / Inotropic effect (Contraction force lowering) ED25: unit not given here. The note with it: for Anti-arrhythmic effect (Refractory period extension) ED25: effective dose which extends the refractory period by 25%; for Anti-arrhythmic effect (Refractory period extension) ED25 / Inotropic effect (Contraction force lowering) ED25: guinea pig left auricle, up to 30 minutes; for Inotropic effect (Contraction force lowering) ED25: effective dose which lowers the contractional force by 25%; for Therapeutic Breadth (III/II): ratio of inotropic ED25 to anti-arrhythmic ED25. The source says:
The experimental procedure utilized paired electrical stimulation in an adaptation of the method of […]. Pharmacol. Exp. […] In this model, the numerous known anti-arrhythmical preparations of differing structure and point of therapeutic attack all show an prolongation of the functional refractory period. The experiment additionally permits a study of the effects of different substances on the contractility of the heart muscles [Reuter und Heeg, Naunyn, Naunyn-Schmiedeberg's Arch. Pharmakol. […] Pharmakol. […] Therefore the experiment is suitable for discovering which substances have the greatest therapeutic range, that is to say, which have the greatest safety margin between the anti-arrhythmic and the negatively inotropically effective dosages. To test the substances, up to 18 and 30 individual experiments were carried out in each case. At least 3 dosages were tested each on 6 auricle preparations and the linear regression functions were calculated[[…] In column II, the […] shown and in column III, the inotropic effect is shown. In column IV, the therapeutic range of the compounds is shown.

The test system of data set [3] is experimentally induced heart rhythm disturbances (aconitine) in rats. The experiment in a line: Aconitine-induced heart rhythm disturbances in rats, intravenous pre-treatment. Type of data set: in vivo, rat. To be noted: for ED25 / ED50: Rattus norvegicus, iv; for occurrence of heart rhythm disturbances on pre-treatment: aconitine continuously infused intravenously. From the text: If rats are continuously infused intravenously with aconitine, then serious disturbances of the cardiac rhythm such as extrasystole, ventricular tachycardia, and ventricular flutter, which finally lead to the death of the experimental animals, can be observed on an electrocardiogram. […] This experimental arrhythmic model is checked by means of clinically tested standard therapeutic compounds as to its reliability and is well suited for characterizing antiarrhythmical compounds in experiments on animals [cf. for example, Bianci et al., Arzneim.-Forsch. 18, 845- 850 (1968); Haas und Busch, Arzneim.-Forsch. 18, 401- 407 (1968); Haas et al., Arzneim.-Forsch.21, 1392- 1399 (1971); Marmo, Naunyn-Schmiedeberg's Arch. Pharmakol. 269, 231- 247 (1971); and Strubelt et al., Naunyn-Schmiedeberg's Arch. Pharmakol. 271, 346- 360 (1971.]
The ED25 or ED50 are the intravenous dosages in mg/kg which allow an increase in administered aconitine doses, relative to the control, by 25 or 50%, respectively, before the occurrence of extrasystoles, ventricular tachycardia, and ventricular flutter.

Setting [4] is: read-out: Ventricular Tachycardia ED25.
Where [5] appears, read: read-out: Ventricular Tachycardia ED50.
[6] abbreviates: read-out: Ventricular flutter ED25.
[7] abbreviates: read-out: Ventricular flutter ED50.

Where two headings read alike, the source gives them in different places.

Consider six molecules from US3962449A, “Cardioactive bispidones and bispidines” (priority 1974, dated 1976).

Turning to `CCN(CC)CC(=O)Nc1c(C)cccc1C` [Lidocain], the therapeutic range entry in data set [1] is on record as “narrow therapeutic range”. Besides, in data set [2], the “Anti-arrhythmic effect (Refractory period extension) ED25” value (from here on “Anti-arrhythmic effect”) is 0.47, the “Inotropic effect (Contraction force lowering) ED25” value was 0.48 and the “Therapeutic Breadth (III/II)” value is listed as 1.0.

Broadly, the ED50 is the midpoint of the dose-response relation. On to `CC(C)N1CC2CC(CN(CCc3ccccc3)C2)C1` [N-isopropyl-N'-β-phenylethyl-bispidine], for which the ED25 is about 1.8 mg/kg in data set [3] (read-out: Extrasystoles ED25), 1.41 mg/kg in data set [3] (setting [4]) and 1.7 mg/kg in data set [3] (setting [6]). The ED50 is about 2.3 mg/kg in data set [3] (read-out: Extrasystoles ED50), 2.13 mg/kg in data set [3] (setting [5]) and 2.47 mg/kg in data set [3] (setting [7]). For the same molecule, the “occurrence of heart rhythm disturbances on pre-treatment” value in data set [3] (rats) was “prevented or at least substantially delayed”. Moreover, in data set [2], the “Anti-arrhythmic effect” value turned out to be 0.13. Besides, the “Inotropic effect (Contraction force lowering) ED25” value in data set [2] was 0.26. In data set [2], the “Therapeutic Breadth (III/II)” value was determined as 2.0.

As to `c1ccc(CN2CC3CC(C2)CN(Cc2ccccc2)C3)cc1` [N,N'-dibenzyl-bispidine, N,N'-dibenzylbispidine], the ED25 in data set [3] (read-out: Extrasystoles ED25) was found to be 1.06 mg/kg; in data set [3] (setting [4]), 0.87 mg/kg; in data set [3] (setting [6]), 1.03 mg/kg. In addition, the figures for the ED50 in data set [3] (read-out: Extrasystoles ED50), in data set [3] (setting [5]) and in data set [3] (setting [7]) were 1.76 mg/kg, 1.23 mg/kg and 1.48 mg/kg, respectively. Further, the “occurrence of heart rhythm disturbances on pre-treatment” value in data set [3] (rats) is “prevented or at least substantially delayed”. In addition, in data set [2], the “Anti-arrhythmic effect” value is given as 0.034. In data set [2], the “Inotropic effect (Contraction force lowering) ED25” value stood at 0.07. Moreover, in data set [2], the “Therapeutic Breadth (III/II)” value is reported as 2.0.

As for `C1CCN2CC3CC(CN4CCCCC34)C2C1` (single isomer, unassigned) [Spartein, reference compound], the ED25 in data set [3] (setting [4]) is 4.43 mg/kg. Further, the ED50 in data set [3] (setting [5]) was determined as 9.55 mg/kg. In data set [3] (intravenous, dose allowing 25% increase in aconitine dose relative to control before extrasystoles, rats), the “Extrasystoles ED25” value is on record as “+)”. Moreover, the “Ventricular flutter ED25” value in data set [3] (intravenous, dose allowing 25% increase in aconitine dose relative to control before ventricular flutter, rats) is listed as “+)”. Further, the “Extrasystoles ED50” value in data set [3] (intravenous, dose allowing 50% increase in aconitine dose relative to control before extrasystoles, rats) is “+)”. In addition, the “Ventricular flutter ED50” value in data set [3] (intravenous, dose allowing 50% increase in aconitine dose relative to control before ventricular flutter, rats) is “+)”.

Consider `CCC[N+]12[C@H](O)[C@@H](CC)[C@@H]3C[C@H]1[C@@H]1N(C)c4ccccc4[C@]14C[C@H]2[C@@H]3[C@H]4O` [N-n-propylajmalin], for which, in data set [2], the “Anti-arrhythmic effect” value came to 0.0037, the “Inotropic effect (Contraction force lowering) ED25” value is given as 0.0015 and the “Therapeutic Breadth (III/II)” value was found to be 0.4.

As for `c1ccc(CN(CC2=NCCN2)c2ccccc2)cc1` [Antazolin], in data set [1], the therapeutic range result was “narrow therapeutic range”. In data set [2], the “Anti-arrhythmic effect” value is reported as 0.164, the “Inotropic effect (Contraction force lowering) ED25” value is recorded as 0.094 and the “Therapeutic Breadth (III/II)” value was found to be 0.6.
